US9944645B2, “Imidazotriazines and imidazopyrimidines as kinase inhibitors” (Incyte Holdings Corporation, priority 2006, dated 2018)

Target: c-Met kinase (h-Met; histidine-tagged c-Met catalytic domain fusion protein) (Homo sapiens (Human), UniProt P08581)
Assay: In Vitro c-Met Kinase Enzyme Assays
Type: biochemical
Details: phosphorylation of poly Glu-Tyr, 5 μM ATP, 25 minutes at 30° C.
Outline: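 His-tagged c-Met catalytic domain reacted 25 min at 30° C, within the linear initial-rate range. Phosphotyrosine detected by ELISA with peroxidase-labeled anti-phospho-tyrosine antibody and TMB, OD read at 450 nm (540 nm correction); IC50 from curve fit.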

Chain of c-Met kinase (h-Met; histidine-tagged c-Met catalytic domain fusion protein) (P08581 1078-1345): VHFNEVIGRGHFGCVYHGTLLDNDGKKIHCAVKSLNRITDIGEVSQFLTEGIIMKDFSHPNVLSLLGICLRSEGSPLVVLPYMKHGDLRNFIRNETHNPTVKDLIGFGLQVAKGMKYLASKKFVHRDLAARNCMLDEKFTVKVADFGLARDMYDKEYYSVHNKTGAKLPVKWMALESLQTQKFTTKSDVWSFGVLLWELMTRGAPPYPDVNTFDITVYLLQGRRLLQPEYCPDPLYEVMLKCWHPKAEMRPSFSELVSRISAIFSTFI

IC50, < 0.5 µM:
CC(NC(=O)c1ccc(-c2cnc3ncc(C4(c5ccc6ncccc6c5)CC4)n3c2)cc1Cl)c1ccccn1 (stereo not shown) [Example 177, 2-Chloro-N-(1-pyridin-2-ylethyl)-4-[3-(1-quinolin-6-ylcyclopropyl)imidazo[1,2-a]pyrimidin-6-yl]benzamide]
O=C(c1ccc(-c2cnc3ncc(C4(c5ccc6ncccc6c5)CC4)n3c2)cc1Cl)N1CCC1 [Example 178, 6-(1-{6-[4-(Azetidin-1-ylcarbonyl)-3-chlorophenyl]imidazo[1,2-a]pyrimidin-3-yl}cyclopropyl)quinoline]
O=C(NC1CCN(c2ccccn2)C1)c1ccc(-c2cnc3ncc(C4(c5ccc6ncccc6c5)CC4)n3c2)cc1Cl (stereo not shown) [Example 179, 2-Chloro-N-(1-pyridin-2-ylpyrrolidin-3-yl)-4-[3-(1-quinolin-6-ylcyclopropyl)imidazo[1,2-a]pyrimidin-6-yl]benzamide]
CC(COc1ccccn1)NC(=O)c1ccc(-c2cnc3ncc(C4(c5ccc6ncccc6c5)CC4)n3c2)cc1Cl (stereo not shown) [Example 180, 2-Chloro-N-[1-methyl-2-(pyridin-2-yloxy)ethyl]-4-[3-(1-quinolin-6-ylcyclopropyl)imidazo[1,2-a]pyrimidin-6-yl]benzamide]
CC(C)[C@H](NC(=O)c1ccc(-c2cnc3ncc(C4(c5ccc6ncccc6c5)CC4)n3c2)cc1Cl)C(=O)N(C)C [Example 181, 2-Chloro-N-(1S)-1-[(dimethylamino)carbonyl]-2-methylpropyl-4-[3-(1-quinolin-6-ylcyclopropyl)imidazo[1,2-a]pyrimidin-6-yl]benzamide]
O=C1c2ccc(-c3cnc4ncc(C5(c6ccc7ncccc7c6)CC5)n4c3)cc2CN1C1CC1 [Example 182, 2-Cyclopropyl-5-[3-(1-quinolin-6-ylcyclopropyl)imidazo[1,2-a]pyrimidin-6-yl]isoindolin-1-one]
CCN1Cc2cc(-c3cnc4ncc(C5(c6ccc7ncccc7c6)CC5)n4c3)ccc2C1=O [Example 183, 2-Ethyl-5-[3-(1-quinolin-6-ylcyclopropyl)imidazo[1,2-a]pyrimidin-6-yl]isoindolin-1-one]
COCC(C)N1Cc2cc(-c3cnc4ncc(C5(c6ccc7ncccc7c6)CC5)n4c3)ccc2C1=O (stereo not shown) [Example 184, 2-(2-Methoxy-1-methylethyl)-5-[3-(1-quinolin-6-ylcyclopropyl)imidazo[1,2-a]pyrimidin-6-yl]isoindolin-1-one]
O=C1c2ccc(-c3cnc4ncc(C5(c6ccc7ncccc7c6)CC5)n4c3)cc2CN1Cc1ccccn1 [Example 185, 2-(Pyridin-2-ylmethyl)-5-[3-(1-quinolin-6-ylcyclopropyl)imidazo[1,2-a]pyrimidin-6-yl]isoindolin-1-one]
CN1Cc2cc(-c3cnc4ncc(C5(c6ccc7ncccc7c6)CC5)n4c3)ccc2C1=O [Example 186, 2-Methyl-5-[3-(1-quinolin-6-ylcyclopropyl)imidazo[1,2-a]pyrimidin-6-yl]isoindolin-1-one]
CCNC(=O)C1(c2ccc(-c3cnc4ncc(C5(c6ccc7ncccc7c6)CC5)n4c3)cc2)CC1 [Example 187, N-Ethyl-1-{4-[3-(1-quinolin-6-ylcyclopropyl)imidazo[1,2-a]pyrimidin-6-yl]phenyl}cyclopropanecarboxamide]
CC(NC(=O)C1(c2ccc(-c3cnc4ncc(C5(c6ccc7ncccc7c6)CC5)n4c3)cc2)CC1)c1ccccn1 (stereo not shown) [Example 188, N-(1-Pyridin-2-ylethyl)-1-{4-[3-(1-quinolin-6-ylcyclopropyl)imidazo[1,2-a]pyrimidin-6-yl]phenyl}cyclopropanecarboxamide]
CC(COc1ccccn1)NC(=O)C1(c2ccc(-c3cnc4ncc(C5(c6ccc7ncccc7c6)CC5)n4c3)cc2)CC1 (stereo not shown) [Example 189, N-[1-Methyl-2-(pyridin-2-yloxy)ethyl]-1-{4-[3-(1-quinolin-6-ylcyclopropyl)imidazo[1,2-a]pyrimidin-6-yl]phenyl}cyclopropanecarboxamide]
CNC(=O)C(O)c1ccc(-c2cnc3ncc(C4(c5ccc6ncccc6c5)CC4)n3c2)cc1F (stereo not shown) [Example 190, 2-{2-Fluoro-4-[3-(1-quinolin-6-ylcyclopropyl)imidazo[1,2-a]pyrimidin-6-yl]phenyl}-2-hydroxy-N-methylacetamide]
CN(C)C(=O)C(O)c1ccc(-c2cnc3ncc(C4(c5ccc6ncccc6c5)CC4)n3c2)cc1F (stereo not shown) [Example 191, 2-{2-fluoro-4-[3-(1-quinolin-6-ylcyclopropyl)imidazo[1,2-a]pyrimidin-6-yl]phenyl}-2-hydroxy-N,N-dimethylacetamide]
CCNC(=O)Nc1cccc(Cc2cnc3ncc(-c4ccc(Br)c(F)c4)nn23)c1 [Example 192, N-(3-[2-(4-Bromo-3-fluorophenyl)imidazo[1,2-b][1,2,4]triazin-7-yl]methylphenyl)-N′-ethylurea]
Nc1nc2ncc(C3(c4ccc5ncccc5c4)CC3)n2nc1-c1cccc(Cl)c1Cl [Example 193, 2-(2,3-Dichlorophenyl)-7-(1-quinolin-6-ylcyclopropyl)imidazo[1,2-b][1,2,4]triazin-3-amine]
CNC(=O)c1ccc(-c2cnc3ncc(C4(c5ccc6ncccc6c5)CC4)n3c2)c(F)c1F [Example 194, 2,3-Difluoro-N-methyl-4-[3-(1-quinolin-6-ylcyclopropyl)imidazo[1,2-a]pyrimidin-6-yl]benzamide]
CNC(=O)c1c(F)cc(-c2cnc3ncc(C4(c5ccc6ncccc6c5)CC4)n3c2)cc1F [Example 195, 6-Difluoro-N-methyl-4-[3-(1-quinolin-6-ylcyclopropyl)imidazo[1,2-a]pyrimidin-6-yl]benzamide]
CNS(=O)(=O)c1ccc(-c2cnc3ncc(C4(c5ccc6ncccc6c5)CC4)n3c2)cc1F [Example 196, 2-Fluoro-N-methyl-4-[3-(1-quinolin-6-ylcyclopropyl)imidazo[1,2-a]pyrimidin-6-yl]benzenesulfonamide]
CN(C)C(=O)Cn1ccc(-c2cnc3ncc(C4(c5ccc6ncccc6c5)CC4)n3c2)n1 [Example 197, N,N-Dimethyl-2-{3-[3-(1-quinolin-6-ylcyclopropyl)imidazo[1,2-a]pyrimidin-6-yl]-1H-pyrazol-1-yl}acetamide]
CC(C)(C)[C@H](NC(=O)c1ccc(-c2cnc3ncc(C4(c5ccc6ncccc6c5)CC4)n3c2)cc1F)C(=O)N1CCC1 [Example 198, N-[(1S)-1-(Azetidin-1-ylcarbonyl)-2,2-dimethylpropyl]-2-fluoro-4-[3-(1-quinolin-6-ylcyclopropyl)imidazo[1,2-a]pyrimidin-6-yl]benzamide]
CC(NC(=O)c1ccc(-c2cnc3ncc(C4(c5ccc6ncccc6c5)CC4)n3c2)cc1F)C(=O)N(C)C (stereo not shown) [Example 199, N-[2-(Dimethylamino)-1-methyl-2-oxoethyl]-2-fluoro-4-[3-(1-quinolin-6-ylcyclopropyl)imidazo[1,2-a]pyrimidin-6-yl]benzamide]
CC(NC(=O)c1ccc(-c2cnc3ncc(C4(c5ccc6ncccc6c5)CC4)n3c2)cc1F)C(=O)N1CCC1 (stereo not shown) [Example 200, N-(2-Azetidin-1-yl-1-methyl-2-oxoethyl)-2-fluoro-4-[3-(1-quinolin-6-ylcyclopropyl)imidazo[1,2-a]pyrimidin-6-yl]benzamide]
O=C(NCC1(O)CC1)c1ccc(-c2cnc3ncc(Cc4ccc5ncccc5c4)n3n2)cc1F [Example 202, 2-Fluoro-N-[(1-hydroxycyclopropyl)methyl]-4-[7-(quinolin-6-ylmethyl)imidazo[1,2-b][1,2,4]triazin-2-yl]benzamide]
COC(=O)N1CCC(CC#N)(n2cc(-c3cnc4ncc(Cc5ccc6ncccc6c5)n4n3)cn2)CC1 [Example 203, Methyl 4-(cyanomethyl)-4-{4-[7-(quinolin-6-ylmethyl)imidazo[1,2-b][1,2,4]triazin-2-yl]-1H-pyrazol-1-yl}piperidine-1-carboxylate]
CCOC(=O)N1CCC(CC#N)(n2cc(-c3cnc4ncc(Cc5ccc6ncccc6c5)n4n3)cn2)CC1 [Example 204, Ethyl 4-(cyanomethyl)-4-{4-[7-(quinolin-6-ylmethyl)imidazo[1,2-b][1,2,4]triazin-2-yl]-1H-pyrazol-1-yl}piperidine-1-carboxylate]
CC(=O)N1CCC(CC#N)(n2cc(-c3cnc4ncc(Cc5ccc6ncccc6c5)n4n3)cn2)CC1 [Example 205, (1-Acetyl-4-{4-[7-(quinolin-6-ylmethyl)imidazo[1,2-b][1,2,4]triazin-2-yl]-1H-pyrazol-1-yl}piperidin-4-yl)acetonitrile]
